Laboratory results taken from patent US4481201A, “Pharmaceutical composition containing N,N^3 -di-(β-bromopropionyl)-N^1,N^2 -dispirotripiperazinium dichloride” (Vsesojuzny Nauchno-Issledovatelsky Khimoko-Farmasevtichesky …, priority 1981, dated 1984).
Entries after “also recorded” stand apart in the source; their conditions may differ. Like-named read-outs stand apart in the source and are kept apart here.

Key:
[1] = system: sarcoma M-1; experiment: Growth of graft sarcoma M-1 in rats; assay type: in vivo; conditions: rats, 85 mg/kg per os, 6 injections, one experiment
Excerpt: (§1) The antitumor activity has been studied on white rats weighing 110-130 g, as well as on white noninbred and inbred mice weighing 17-21 g with ligated tumors. The treatment is started 5-7 days transplanting of solid tumors and the following day after the transplanting of leukotic strains. Use has been made of the following transplantable strains of the tumors:
(§2) (1) rats: Ienssen's sarcoma, sarcoma 45, sarcoma M-1, sarcoma 536;
(§3) The compounds of the general formula (I), wherein X represents Cl^- (compound 1), Br^- (compound 2) are well-soluble in an isotonic solution of sodium chloride and they are administered intraperitoneally. The doses of the compounds have been calculated in mg per kg of the animal bodyweight.

[2] = system: Ienssen's sarcoma; experiment: Growth of graft Ienssen sarcoma in rats; assay type: in vivo
Excerpt: as §1, §2, §3

[3] = Toxicity on single and repeated administration to mice; assay type: in vivo; conditions: for MTD / LD50: mouse, in vivo; for MTD: read-out: MTD; for Ik index of toxic effect cumulation: intraperitoneal administration; for LD50: read-out: DL50 (average lethal dose)
Procedure: (3) acute toxicity of the compounds upon a single and repeated administration to white noninbred mice places into standard cages with 8 animals in each.
In the investigation of toxic properties of the compounds according to the present invention there has been determined the absolutely lethal dose (DL95), average lethal dose (DL50) and MTD. For compounds 1 and 2 there were determined DL95 and DL50 on healthy white mice with the body mass of 18-21 g at a single and repeated (once a day, daily for 7 days) intraperitoneal administration.

[4] = system: sarcoma 180; experiment: Growth of graft sarcoma 180 in mice; assay type: in vivo, noninbred white mice
Excerpt: as §1
(2) noninbred white mice: sarcoma 180, sarcoma AK, sarcoma 37, carcinoma HK;
as §3

[5] = Solubility; assay type: physicochemical
Procedure: as §3
To a mixture of 3 g of N^1,N^2 -dispirotripiperazinium dichloride, 1.5 g of lithium hydroxide, 1 ml of water and 10 ml of ether a solution of 5.2 g of β-bromopropionic acid chlorid in 5 ml of ether is added under vigorous stirring and at a temperature of 5° to 10° C. The reaction mass is stirred for 2 hours at the temperature of 15° C. The residue is filtered off, dissolved in 10 ml of water; the resulting aqueous solution is poured in 100 ml of methanol.

[6] = system: leukemia La; experiment: Life span of mice with transplantable leukemia La; assay type: in vivo, inbred mice; conditions: mice with transplantable leukemia La
Excerpt: as §1
(§4) (3) inbred mice: leukemia La, leukemia L1210 and P-388.
(§5) The activity of compounds relative to leukosis has been assessed by the life span (It) of treated animals as compared to the control ones. It --index of suppression of leukosis development is calculated by the formula: [formula]

[7] = system: sarcoma 536; experiment: Growth of graft sarcoma 536 in rats; assay type: in vivo; set-up: key to tumor growth suppression class, Sarcoma 536: +++: tumor growth suppression by 95-100%; ++: tumor growth suppression by 80-95%; +: tumor growth suppression by 60-80%; tumor growth suppression by 30-60%; 0: no effect; conditions: for tumor growth suppression class, Sarcoma 536: rats
Excerpt: as §1, §2, §3

[8] = system: leukemia P-388; experiment: Life span of mice with transplantable leukemia P-388; assay type: in vivo, inbred mice; conditions: mice with transplantable leukemia P-388
Excerpt: as §1, §4, §5

[9] = system: sarcoma 45; experiment: Growth of graft sarcoma 45 in rats; assay type: in vivo; conditions: rats
Excerpt: as §1, §2, §3

[10] = system: leukemia L1210; experiment: Life span of mice with transplantable leukemia L1210; assay type: in vivo, inbred mice; conditions: mice with transplantable leukemia L1210
Excerpt: as §1, §4, §5

[11] = Distribution of C^14-labeled preparation within organs and tissues of rats with sarcoma M-1; assay type: in vivo; conditions: rats with sarcoma M-1, intravenous
Excerpt: Furthermore, the particular distribution of the preparation according to the present invention within organs and tissues should also be noted.
(§6) In the case of administration of the preparation according to the present invention labeled with C^14, a higher level of radioactivity in blood is observed than in the case of prospidin labeled with C^14. A higher rate of accumulation of the preparation according to the present invention as compared to prospidin is observed in larynx, windpipe, bronchi, bone marrow, tumor and thyroid gland. The preparation according to the present invention labeled with C^14 is withdrawn from the organism within 24 hours after the intravenous administration mainly with urine, while C^14 --labeled prospidin is retained in the organism for a longer period.

[12] = Withdrawal of radioactivity from the rats' organism; assay type: in vivo; set-up: concentration or dose not given beside the values; conditions: 24 hours after intravenous administration, C^14-labeled
Excerpt: as §6

[13] = system: transplantable leukemia; experiment: Activity relative to leukoses of inbred mice (overall); assay type: in vivo
Excerpt: (2) activity of the compounds relative to leukoses of inbred mice;
as §1, §4, §5

[14] = mice, single intraperitoneal administration
[15] = ip, mice, single intraperitoneal administration
[16] = rats, per os, 145 mg/kg, 7 injections

With `O=C(CCBr)N1CC[N+]2(CC1)CC[N+]1(CCN(C(=O)CCBr)CC1)CC2` [Compound 3] the “Change in the animal body weight, test” value [1] was “+1 g”, the “It, % tumor growth suppression index” value ([2]; rats, 83 mg/kg per os (MTD), 7 injections, one experiment) was 50% and the “Change in the animal body weight, test” value ([2]; rats, 83 mg/kg per os, 7 injections, one experiment) was -7 g. The MTD ([3]; po, repeated administration, suspension per os) was 83 mg/kg, the “suppression of sarcoma 180 growth” value ([4]; mice, per os, at MTD (dose not given)) was 35 and the solubility in water [5] was “sparingly soluble”.

For `CN(C)c1nc(NP(=O)(N2CC2)N2CC2)c2c(ncn2C)n1` [Phopurine, 2-dimethylamino-6-diethyleneimido-phosphamido-7-methylpurine, reference compound], the “It, % index of suppression of leukosis development” value (“It, % index” below) [6] was 204%, the “Life span” value [6] was 22.5 ± 3.4 days and the “Ik index of toxic effect cumulation” value ([3]; mice) was 12. For the same compound, the “DL95 (absolutely lethal dose)” value [3, 14] was 430 mg/kg, the LD50 [3, 15] was 280 mg/kg and the MTD ([3]; ip, repeated intraperitoneal administration) was 120 mg/kg. For the same compound, the “slowing of the growth of sarcoma 180” value ([4]; dose not given) was 36%, the “tumor growth suppression class, Sarcoma 180” value ([4]; mice) was “+ (tumor growth suppression by 60-80%)” and the “effect on the growth of sarcoma 536” value ([7]; dose not given) was “does not affect the growth”. For the same compound, the “tumor growth suppression class, Sarcoma 536” value [7] was 0.

In the case of `OC(CCl)CN1CC[N+]2(CC1)CC[N+]1(CCN(CC(O)CCl)CC1)CC2` (stereo not drawn) [Prospidin, 3,12-diaza-6,9-diazaniumdispiro-[5,2,5,2]-hexadecane-3,12-bis-(3-chloro-2-hydroxypropyl)-dichloride, reference compound], the “Ch/T chemotherapeutical index (ratio of MTD to minimum effective dose)” value ([2]; Ienssen sarcoma) is reported as 27, the “Change in the bodyweight of animals, test” value [2, 16] is reported as -9 g and the “It, %” value [2, 16] is reported as “+30%”. For the same compound, the “It, % index” value [6] was 0%, the “Life span” value [6] was 6.6 ± 0 days and the “It, % index” value [8] was 50%. For the same compound, the “Life span” value [8] was 14.8 ± 0.3 days, the “Ik index of toxic effect cumulation” value ([3]; mice) was 58 and the “DL95 (absolutely lethal dose)” value ([3]; mice, repeated intraperitoneal administration (once a day, daily for 7 days)) was 250 mg/kg. For the same compound, the “DL50 (average lethal dose)” value [3, 14] was 1,000 mg/kg, the “DL95 (absolutely lethal dose)” value [3, 14] was 1200 mg/kg and the LD50 [3, 15] was 1000 mg/kg. For the same compound, the “tumor growth suppression class, Sarcoma 45” value [9] was “++ (tumor growth suppression by 80-95%)”, the “It, % index” value [10] was 0% and the “Life span” value [10] was 8.1 ± 0.1 days. For the same compound, the “tumor growth suppression class, Sarcoma 180” value ([4]; mice) was “++ (tumor growth suppression by 80-95%)”, the “tumor growth suppression class, Sarcoma 536” value [7] was “++ (tumor growth suppression by 80-95%)” and the “Coefficient of differential accumulation, Blood” value ([11]; 15 min) was 0.4. For the same compound, the “Coefficient of differential accumulation, Bone marrow” value ([11]; 15 min) was 0.8, the “Coefficient of differential accumulation, Bronchi” value ([11]; 15 min) was 2.16 and the “Coefficient of differential accumulation, Hypophysis” value ([11]; 15 min) was 2.4. The “Coefficient of differential accumulation, Kidneys” value ([11]; 15 min) was 3.34, the “Coefficient of differential accumulation, Larynx” value ([11]; 15 min) was 0.42 and the “Coefficient of differential accumulation, Liver” value ([11]; 15 min) was 1.43. The “Coefficient of differential accumulation, Lungs” value ([11]; 15 min) was 1.54, the “Coefficient of differential accumulation, Lymphonodes” value ([11]; 15 min) was 0.57 and the “Coefficient of differential accumulation, Spleen” value ([11]; 15 min) was 0.43. The “Coefficient of differential accumulation, Thymus gland” value ([11]; 15 min) was 0.16, the “Coefficient of differential accumulation, Tumor” value ([11]; 15 min) was 0.65 and the “Coefficient of differential accumulation, Tyroid gland” value ([11]; 15 min) was 1.2. For the same compound, the “Coefficient of differential accumulation, Windpipe” value ([11]; 15 min) was 0.38, the “Coefficient of differential accumulation, Blood” value ([11]; 30 min) was 0.1 and the “Coefficient of differential accumulation, Bone marrow” value ([11]; 30 min) was 0.6. The “Coefficient of differential accumulation, Bronchi” value ([11]; 30 min) was 0.82, the “Coefficient of differential accumulation, Hypophysis” value ([11]; 30 min) was 1.65 and the “Coefficient of differential accumulation, Kidneys” value ([11]; 30 min) was 0.67. The “Coefficient of differential accumulation, Larynx” value ([11]; 30 min) was 0.32, the “Coefficient of differential accumulation, Liver” value ([11]; 30 min) was 0.75 and the “Coefficient of differential accumulation, Lungs” value ([11]; 30 min) was 0.45. The “Coefficient of differential accumulation, Lymphonodes” value ([11]; 30 min) was 0.48, the “Coefficient of differential accumulation, Spleen” value ([11]; 30 min) was 0.21 and the “Coefficient of differential accumulation, Thymus gland” value ([11]; 30 min) was 0.06. For the same compound, the “Coefficient of differential accumulation, Tumor” value ([11]; 30 min) was 0.37, the “Coefficient of differential accumulation, Tyroid gland” value ([11]; 30 min) was 1.06 and the “Coefficient of differential accumulation, Windpipe” value ([11]; 30 min) was 0.21. For the same compound, the “Coefficient of differential accumulation, Blood” value ([11]; 60 min) was 0.07, the “Coefficient of differential accumulation, Bone marrow” value ([11]; 60 min) was 0.52 and the “Coefficient of differential accumulation, Bronchi” value ([11]; 60 min) was 0.5. The “Coefficient of differential accumulation, Hypophysis” value ([11]; 60 min) was 1.47, the “Coefficient of differential accumulation, Kidneys” value ([11]; 60 min) was 0.56 and the “Coefficient of differential accumulation, Larynx” value ([11]; 60 min) was 0.14. The “Coefficient of differential accumulation, Liver” value ([11]; 60 min) was 0.67, the “Coefficient of differential accumulation, Lungs” value ([11]; 60 min) was 0.2 and the “Coefficient of differential accumulation, Lymphonodes” value ([11]; 60 min) was 0.14. For the same compound, the “Coefficient of differential accumulation, Spleen” value ([11]; 60 min) was 0.11, the “Coefficient of differential accumulation, Thymus gland” value ([11]; 60 min) was 0.05 and the “Coefficient of differential accumulation, Tumor” value ([11]; 60 min) was 0.3. For the same compound, the “Coefficient of differential accumulation, Tyroid gland” value ([11]; 60 min) was 0.75, the “Coefficient of differential accumulation, Windpipe” value ([11]; 60 min) was 0.1 and the “Coefficient of differential accumulation, Blood” value ([11]; 24 hours) was 0.01. The “Coefficient of differential accumulation, Bone marrow” value ([11]; 24 hours) was 0.18, the “Coefficient of differential accumulation, Bronchi” value ([11]; 24 hours) was 0.25 and the “Coefficient of differential accumulation, Hypophysis” value ([11]; 24 hours) was 0.55. The “Coefficient of differential accumulation, Kidneys” value ([11]; 24 hours) was 0.15, the “Coefficient of differential accumulation, Larynx” value ([11]; 24 hours) was 0.05 and the “Coefficient of differential accumulation, Liver” value ([11]; 24 hours) was 0.13. The “Coefficient of differential accumulation, Lungs” value ([11]; 24 hours) was 0.06, the “Coefficient of differential accumulation, Lymphonodes” value ([11]; 24 hours) was 0.04 and the “Coefficient of differential accumulation, Spleen” value ([11]; 24 hours) was 0.06. For the same compound, the “Coefficient of differential accumulation, Thymus gland” value ([11]; 24 hours) was 0.02, the “Coefficient of differential accumulation, Tumor” value ([11]; 24 hours) was 0.07 and the “Coefficient of differential accumulation, Tyroid gland” value ([11]; 24 hours) was 0.22. For the same compound, the “Coefficient of differential accumulation, Windpipe” value ([11]; 24 hours) was 0.07, the “Withdrawal of radioactivity, Feces” value [12] was 7.0% and the “Withdrawal of radioactivity, Total” value [12] was 75.0%. The “Withdrawal of radioactivity, Urina” value [12] was 68.0% and the “effect on transplantable leukemia in mice” value [13] was “does not affect the development of leukemiae; also recorded: does not provide any effect”.
